According to patent US20120029177A1, “HETEROCYCLE-AMINO ACID DERIVATIVES FOR TARGETING CANCER TISSUE AND RADIOACTIVE OR NON-RADIOACTIVE LABELED COMPOUNDS THEREOF” (SNU R&DB FOUNDATION, priority 2009, published 2012):

Key:
[1] = tested on: SNU-C4 xenografted nude mice; experiment: PET imaging of tumor xenografted mice; type: in vivo, mouse; conditions: PET at 1 and 2 hr post-injection, FIG. 2
Procedure: Human colon cancer cell line SNU-C4 was cultured in RPMI1640 media containing 10% fetal bovine serum and harvested using trypsin. The cells were washed using 10 mL PBS and centrifugation at 3,000 rpm. Each nude mouse was injected with 2×10^5 cells/0.1 mL on the right shoulder subcutaneously. On 14 days post-injection, each 10 μCi/0.1 mL of ^68Ga labeled agent was injected into the xenografted mice through the tail vein. The injected mice were anesthetized using 2% isoflurane, PET images were obtained at 1 and 2 hr post-injection using rodent R4, microPET scanner (Concorde Microsystem Inc.). The images were analyzed using ASIPro software (Concorde Microsystem Inc.).

[2] = tested on: SNU-C4 xenografted nude mice; experiment: Biodistribution study in SNU-C4 xenografted nude mice after intravenous injection; type: in vivo, mouse; conditions: for % ID/g Tumor: SNU-C4 tumor
Procedure: Human colon cancer cell line SNU-C4 was cultured in RPMI1640 media containing 10% fetal bovine serum and harvested using trypsin. The cells were washed using 10 mL PBS and centrifugation at 3,000 rpm. Each nude mouse was injected with 2×10^5 cells/0.1 mL on the right shoulder subcutaneously. On 13 days post-injection, each 10 μCi/0.1 mL of ^68Ga labeled agent was injected into the xenografted mice through the tail vein. The injected mice were sacrificed at 10 min, 30 min, 1 hr, and 2 hr, cancer, blood, muscle, heart, liver, spleen, stomach, intestine, and bone were obtained, weighed, and their radioactivities were counted. The results were expressed as percentages of injected dose per gram tissue (% ID/g).

[3] = tested on: CT-26 cells; experiment: In vitro cell uptake, CT-26 (FIG. 1b); type: cell-based, mouse; conditions: controls ^68Ga-DO2A, ^68Ga-DO3A
Procedure: Human colon cancer cell line SNU-C4 was purchased from Korea Cell Line Bank (KCLB). Human thyroid cell line ARO, human liver cancer cell line Hep3B, human glioma cell line U251MG and U87MG, and mouse colon cell line CT-26 were purchased from American Type Culture Collection (ATCC). SNU-C4 and ARO were culture in RPMI1640 (Welgene Inc., Korea) and Hep3B, U251 MG, U87MG, and CT-26 were cultured in DMEM (Welgene Inc., Korea). Penicillin, streptomycin and amphotericin B (10,000 IU/mL, 10 mg/mL and 25 μg/mL, respectively, Mediatech Inc., U.S.A.) 1% mixture and fetal bovine serum (Welgene Inc., Korea) were added to all cell culture media. Cell culture was done in 37° C. incubator with supply of 5% CO2.
About 1.8×10^5 cells/mL CT-26 and 1.2×10^5 cells/mL U87MG were put into 24-well incubation plate and incubated for 20 hr. When the each well was about 80% confluent with cells, 296 kBq/0.5 mL of ^68Ga labeled agent was added to each well. Culture supernatants were discarded at each time point and cells were washed with ice-cooled Hank's balanced salt solution (HBSS, pH7.3, Gibco, U.S.A.) 2 times. The cells were dissolved by 0.5% sodium dodecylsulfate (SDS), recovered and counted using a gamma counter (Packard, Can berra Co., U.S.A.). Total protein amount in each sample was measured by bicinchonic acid (BCA, Pierce, U.S.A.) method.

[4] = 10 min after intravenous injection
[5] = 30 min after intravenous injection
[6] = 1 hr after intravenous injection
[7] = 2 hr after intravenous injection

In the case of NC(CN1CCN(CC(=O)[O-])CCNCCN(CC(=O)[O-])CC1)C(=O)[O-].[68Ga+3] (centres unmarked) [^68Ga-DO2A-ala], the “tumor uptake in PET images” value [1] was “high tumor uptakes”, the “% ID/g Tumor” value [2, 4] was 2.88 ± 0.39 % ID/g and the “% ID/g Tumor” value [2, 5] was 2.30 ± 0.53 % ID/g. For the same compound, the “% ID/g Tumor” value [2, 6] was 1.05 ± 0.33 % ID/g, the “% ID/g Tumor” value [2, 7] was 1.08 ± 0.18 % ID/g and the “tumor uptake compared with the control heterocyclic compound (in words)” value ([2]; SNU-C4 xenografted nude mice, 10 min to 2 hr) was “always higher than that of ^68Ga-DO2A”. For the same compound, the “% ID/g Blood” value [2, 4] was 7.75 ± 0.97 % ID/g, the “% ID/g Blood” value [2, 5] was 5.26 ± 1.36 % ID/g and the “% ID/g Blood” value [2, 6] was 3.12 ± 0.89 % ID/g. The “% ID/g Blood” value [2, 7] was 1.94 ± 0.24 % ID/g, the “% ID/g Bone” value [2, 4] was 2.60 ± 0.56 % ID/g and the “% ID/g Bone” value [2, 5] was 2.22 ± 0.49 % ID/g. The “% ID/g Bone” value [2, 6] was 1.57 ± 0.52 % ID/g, the “% ID/g Bone” value [2, 7] was 1.06 ± 0.52 % ID/g and the “% ID/g Heart” value [2, 4] was 1.98 ± 0.06 % ID/g. For the same compound, the “% ID/g Heart” value [2, 5] was 1.19 ± 0.34 % ID/g, the “% ID/g Heart” value [2, 6] was 0.79 ± 0.34 % ID/g and the “% ID/g Heart” value [2, 7] was 0.45 ± 0.10 % ID/g. The “% ID/g Intestine” value [2, 4] was 1.91 ± 0.33 % ID/g, the “% ID/g Intestine” value [2, 5] was 1.40 ± 0.38 % ID/g and the “% ID/g Intestine” value [2, 6] was 3.91 ± 2.96 % ID/g. The “% ID/g Intestine” value [2, 7] was 0.77 ± 0.03 % ID/g, the “% ID/g Kidney” value [2, 4] was 13.33 ± 4.30 % ID/g and the “% ID/g Kidney” value [2, 5] was 14.50 ± 8.89 % ID/g. For the same compound, the “% ID/g Kidney” value [2, 6] was 4.71 ± 2.26 % ID/g, the “% ID/g Kidney” value [2, 7] was 3.99 ± 0.54 % ID/g and the “% ID/g Liver” value [2, 4] was 1.74 ± 0.25 % ID/g. The “% ID/g Liver” value [2, 5] was 1.46 ± 0.27 % ID/g, the “% ID/g Liver” value [2, 6] was 1.39 ± 0.47 % ID/g and the “% ID/g Liver” value [2, 7] was 0.99 ± 0.04 % ID/g. The “% ID/g Lung” value [2, 4] was 8.45 ± 0.98 % ID/g, the “% ID/g Lung” value [2, 5] was 8.23 ± 2.41 % ID/g and the “% ID/g Lung” value [2, 6] was 4.21 ± 1.47 % ID/g. The “% ID/g Lung” value [2, 7] was 3.23 ± 0.49 % ID/g, the “% ID/g Muscle” value [2, 4] was 2.08 ± 0.43 % ID/g and the “% ID/g Muscle” value [2, 5] was 1.81 ± 0.77 % ID/g. The “% ID/g Muscle” value [2, 6] was 0.87 ± 0.40 % ID/g, the “% ID/g Muscle” value [2, 7] was 0.49 ± 0.08 % ID/g and the “% ID/g Spleen” value [2, 4] was 1.61 ± 0.26 % ID/g. The “% ID/g Spleen” value [2, 5] was 1.30 ± 0.29 % ID/g, the “% ID/g Spleen” value [2, 6] was 1.24 ± 0.34 % ID/g and the “% ID/g Spleen” value [2, 7] was 0.82 ± 0.09 % ID/g. For the same compound, the “% ID/g Stomach” value [2, 4] was 2.48 ± 0.62 % ID/g, the “% ID/g Stomach” value [2, 5] was 1.49 ± 0.62 % ID/g and the “% ID/g Stomach” value [2, 6] was 12.82 ± 7.46 % ID/g. The “% ID/g Stomach” value [2, 7] was 0.38 ± 0.05 % ID/g and the “tumor cell uptake versus control agents” value [3] was “significantly increase tumor cell uptakes”.
